This is an account of results in patent US20200179312A1, “ANALOGUES OF CYSTEAMINE AS THERAPEUTIC AGENTS FOR CYSTIC FIBROSIS” (I.E.R.F.C. EUROPEAN INSTITUTE FOR CYSTIC FIBROSIS RESEARCH, priority 2018, published 2020).

Assay [1] has as its system BECN1, SQSTM1/p62, (phospho)p42/44 MAPK. The assay can be described thus: Immunoblot of autophagy and inflammation markers in CFBE cells. It counts as cell-based. The note with it: 0.1 μM. The procedure: Cell lines experiments. CFBE41l- and 16HBE14o-cells were cultured in Minimum Essential Medium (MEM) with Earle's salt, 200 mM L-Glutamine, 10% FBS and penicillin/streptomycin. […]
(§1) The proteins of cell lines lysates or lung or small intestine homogenates, obtained from treated and untreated cells or mice, were quantified by a Bio-Rad protein assay to ensure equal protein loading before immunoblot analysis. Fifty micrograms of proteins were loaded in each lane. Antibodies against SQSTM1, (Sigma Aldrich,P0067) 1:1000, BECN1 (Abcam, ab58878), 1:1000, CFTR clone CF3 (Abcam, ab2784) 1:1000 or anti-CFTR antibody 660 1:1000, Phospho-p44/42 MAPK (Erk1/2) (Thr202/Tyr204) (Cell Signaling Technology, #91101) 1:1000, TG2 (CUB7402, NEOMARKER) 1:1000 were used. Normalization was performed by probing the membrane with anti-β-actin (Cell Signaling, #4970) 1:1000 or anti-α-tubulin (Cell Signaling Technology, 2148) 1:1000.
On the technique in general: Immunoblotting shows a protein as a band on a membrane.

Assay [2] deals with BECN1, (phospho)p42/44 MAPK. Put plainly: Immunoblot of whole homogenates from intestinal and lung tissues of CftrF508del mice. It counts as in vivo. An excerpt: (§2) CF mice homozygous for the delF508-CFTR mutation (abbreviated CftrF508del) in the 129/FVB outbred background (CftrtmlEUR, F508del, FVB/129) were obtained from Erasmus Medical Center Rotterdam, The Netherlands (CF coordinated action program EU FP6 LSHM-CT-2005-018932). These studies and procedures were approved by the local Ethics Committee for Animal Welfare (IACUC No 713). Young adult CF mice and their wild-type (wt) littermates were housed in static isolator cages at the animal care specific pathogen-free facility of Charles River (Calco, Italy). CftrF508del mice were treated with daily intraperitoneal injections of cysteamine (100 μl of 0.05 M in PBS) (Sigma Aldrich, M9768) or IE1 (100 μl of 0.075-0.05-0.025-0.0125 M, in PBS) for 5 d or with cysteamine (5 d) or IE1 different concentrations followed by 10 d or 20 d of PBS alone (n=5 mice per group) (19,20).
The proteins of cell lines lysates or lung or small intestine homogenates, obtained from treated and untreated cells or mice, were quantified by a Bio-Rad protein assay to ensure equal protein loading before immunoblot analysis. Fifty micrograms of proteins were loaded in each lane. […]

The next assay deals with TNF alpha, MIP-2. Put plainly: ELISA of inflammatory cytokines in tissues of CftrF508del mice. It counts as in vivo. The note with it: intestinal and lung tissues.
Source text: as §2
ELISA. ELISA was performed on tissue samples using standard ELISA kits (R&D Systems) for TNF-α, Mip2a. According to the manufacturer's instructions, samples were read in triplicate at 450 nm in a microplate Reader (Bio-Rad, Milan, Italy) using Microplate Manager 5.2.1 software.
Values were normalized to protein concentration evaluated by Bradford analysis.
(In an ELISA, binding on a coated surface is turned into a signal by an enzyme label.)

Another assay has as its target CFTR (Homo sapiens, UniProt P13569, DEL508-508). The assay can be described thus: Immunoblot detection of CFTR in CFBE cells. It counts as cell-based. Details: expressed in transfected cells; host or cells: CFBE41o- cells. The protocol: Cell lines experiments. CFBE41l- and 16HBE14o-cells were cultured in Minimum Essential Medium (MEM) with Earle's salt, 200 mM L-Glutamine, 10% FBS and penicillin/streptomycin. CFBE41o-cells were transfected with AF508-CFTR at 37° C. and incubated for 18 h with cysteamine (250 μM) or different concentration of IE1.
as §1

Chain of CFTR (P13569 with tags, fused parts or gaps DEL508-508): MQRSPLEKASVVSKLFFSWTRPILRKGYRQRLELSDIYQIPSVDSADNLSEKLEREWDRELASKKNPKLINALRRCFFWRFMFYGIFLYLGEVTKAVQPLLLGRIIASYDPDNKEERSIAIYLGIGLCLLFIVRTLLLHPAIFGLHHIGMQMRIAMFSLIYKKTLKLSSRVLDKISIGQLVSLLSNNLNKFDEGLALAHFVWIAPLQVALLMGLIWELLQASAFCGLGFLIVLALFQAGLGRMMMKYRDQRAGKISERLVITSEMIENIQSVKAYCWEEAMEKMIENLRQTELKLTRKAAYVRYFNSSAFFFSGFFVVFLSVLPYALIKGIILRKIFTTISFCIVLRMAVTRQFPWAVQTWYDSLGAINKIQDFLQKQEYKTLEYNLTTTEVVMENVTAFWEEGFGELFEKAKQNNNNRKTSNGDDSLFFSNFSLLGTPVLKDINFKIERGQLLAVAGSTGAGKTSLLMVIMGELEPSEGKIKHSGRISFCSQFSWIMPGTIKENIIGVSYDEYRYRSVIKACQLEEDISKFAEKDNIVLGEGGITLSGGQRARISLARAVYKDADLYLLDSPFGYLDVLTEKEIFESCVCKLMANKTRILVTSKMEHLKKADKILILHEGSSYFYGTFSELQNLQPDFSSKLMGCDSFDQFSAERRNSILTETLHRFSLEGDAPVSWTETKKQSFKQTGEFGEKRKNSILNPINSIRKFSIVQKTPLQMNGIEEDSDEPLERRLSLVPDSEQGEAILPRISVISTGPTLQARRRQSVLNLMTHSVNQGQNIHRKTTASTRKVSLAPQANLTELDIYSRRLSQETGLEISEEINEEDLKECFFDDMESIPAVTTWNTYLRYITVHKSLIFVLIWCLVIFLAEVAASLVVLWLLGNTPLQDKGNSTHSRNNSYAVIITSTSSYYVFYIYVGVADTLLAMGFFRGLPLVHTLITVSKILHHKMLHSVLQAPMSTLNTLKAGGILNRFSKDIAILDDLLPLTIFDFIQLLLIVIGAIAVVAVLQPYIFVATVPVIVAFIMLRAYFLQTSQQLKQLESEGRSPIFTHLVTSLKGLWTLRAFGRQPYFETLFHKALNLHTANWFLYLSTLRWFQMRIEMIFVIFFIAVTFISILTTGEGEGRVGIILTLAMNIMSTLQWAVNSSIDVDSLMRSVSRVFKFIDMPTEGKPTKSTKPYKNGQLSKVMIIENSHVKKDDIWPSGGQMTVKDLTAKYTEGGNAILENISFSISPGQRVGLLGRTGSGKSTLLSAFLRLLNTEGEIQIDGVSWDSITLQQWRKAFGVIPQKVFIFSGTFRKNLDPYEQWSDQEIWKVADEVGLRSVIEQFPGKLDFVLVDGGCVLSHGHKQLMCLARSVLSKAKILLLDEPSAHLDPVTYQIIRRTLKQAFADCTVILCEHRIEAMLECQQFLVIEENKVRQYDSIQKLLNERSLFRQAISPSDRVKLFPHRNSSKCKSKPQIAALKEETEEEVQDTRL

Take `NCCCS` [IE1, 3-aminopropane-1-thiol]: in assay [1], the BECN1 level result is “able to restore BECN1”, the “Inflammation biomarkers (phospho)p42/44 MAPK” value was “decrease” and the p62 levels result is “reduce p62 levels”. Moreover, in assay [1] (48 h, EGCG), the “Effect on (phospho)p42/44 MAPK after 48 h in presence of EGCG” value is on record as “maintained”. Moreover, the “Effect on BECN1 and p62 after 48 h with EGCG addition” value in assay [1] (48 h, EGCG addition) is “preserved”. Moreover, in assay [1] (after 48 h), the “Effect on (phospho)p42/44 MAPK after 48 h” value is recorded as “completely lost”; the “Effect on BECN1 and p62 after 48 h” value is reported as “disappears”. Further, in assay [2], the “BECN1 in whole homogenates” value is reported as “able to restore BECN1” and the “Biomarkers (phospho)p42/44 MAPK in whole homogenates” value was “decrease biomarkers (phospho)p42/44 MAPK”. Further, in the assay on TNF alpha, MIP-2, the MIP-2 result is “decrease principal inflammatory cytokines” and the TNF alpha result is given as “decrease principal inflammatory cytokines”. The “PM-resident CFTR protein” value at CFTR (0.1 μM) is listed as “a sizeable fraction of the channel resided at the PM”. Further, on CFTR (0.1 μM, 24 h of washout), the “PM-resident CFTR protein after washout” value is given as “maintained”. In addition, the “PM-resident CFTR protein after washout” value at CFTR (48 h of washout) is reported as “decreases”. On CFTR (48 h of washout, EGCG added), the “PM-resident CFTR protein after washout with EGCG added” value was “completely maintained”.
